Test results taken from patent publication US20090105149A1, “Compounds comprising lpa” (ENKAM PHARMACEUTICALS A/S, priority 2003, published 2009).
Marks after values point to notes of the source that are not given here.

Assays:
hippocampal neurons [1] = test: Neurite outgrowth, hippocampal neurons; assay type: cell-based, rat; conditions: at 0.3 μg/ml
Procedure: (§1) The cultures were subsequently immunostained for tyrosine hydroxylase. Hippocampal neurons and CGN were plated at a density of 10,000 cells/cm^2 on 8-well permanox chamber slides and incubated for 24 hours in the presence of various concentrations of FGLd. Subsequently the neurons were immunostained for GAP-43. Results from at least five independent experiments for each neuronal culture are shown as percentage ±SEM with the untreated controls set at 100%. *p<0.05, **p<0.01, ***p<0.001 when compared to the controls.
Results from at least four independent experiments are shown as percentage SEM with untreated controls set at 100%. **p<0.01 when compared to the controls.
(§2) Peptide solutions without or with inhibitors of various signal transduction pathways were added to a total volume of 300 μl/cm^2, and the slides were incubated at 37° C. After 24 hours, the neurons were fixed with 4% (v/v) formaldehyde for 20 minutes and thereafter immunostained using primary rabbit antibodies against GAP-43 and Alexa Fluor secondary goat anti-rabbit antibodies. Images of at least 200 neurons for each group in each individual experiment were obtained systematically by using computer assisted fluorescence microscopy as previously described (Rønn et al., 2000 op. cit.). Briefly, a Nikon Diaphot inverted microscope with a Nikon Plan 20× objective (Nikon, Tokyo, Japan) coupled to a video camera (Grundig Electronics, Germany) was used for recordings. The same software package as described above for the dopaminergic neurite outgrowth assay was used to process the recorded images.

[2] = system: organotypic hippocampal neuronal slice cultures (OHSC); test: OGD, propidium iodide staining of OHSC; assay type: cell-based, rat; conditions: control peptide
Description: In the present study it was investigated the effect of the FGL peptide on synaptic plasticity, neuronal function and vulnerability following oxygen and glucose deprivation (OGD) in organotypic hippocampal neuronal slice cultures (OHSC) from 7-day-old Wistar rats according to method of Stoppini et al. (1991) Neurosci Methods. 37:173-82 and primary cultures of dissociated hippocampal neurons from 1-day-old rats according to method of Maar et al. (1997) J Neurosci Res. 47:163-72. Primary cell cultures were maintained for 11-12 days and OHSC for 12-14 days prior to adding FGLd.
The primary cell cultures and OHSC were exposed to OGD for 10 and 20 minutes. Following OGD, the cultures were again supplied with oxygen and glucose and analysed at 1, 4 or 24 hour time point after introduction of OGD exposure. FGLd (or the control peptide FGLc) was added 24 hr before, immediately, or 1 hr or 24 hr after OGD. When administered prior to OGD, FGLd was removed from the medium when introducing OGD. In some cases, the slice cultures were treated with FGLd only at 4 hr after OGD. In addition, the FGFR inhibitor, SU5402 (25 μM), was added together with FGLd in some of the set-ups.
In hippocampal neuronal cultures, FM 1-43 staining was used to evaluate pre-synaptic function (described above). Cell viability in both primary cell cultures and OHSC was measured using the […] [3-(4,5-dimethylthiazol-2-yl)-2,5-diphenyltetrazolium bromide] assay according to Malich et al, (1997) Toxicology. 124:179-92. In, addition, cell viability in OHSC was measured using propidium iodide (PI) staining according to Laake et al. (1999) Brain Res Brain Res Protoc. 4:173-84.

[3] = system: cerebellar granule neurons (CGN); test: Survival of CGN induced to undergo apoptosis by low KCl; conditions: for Neuronal Survival (% of Control): Low K+ (5 mM)
Procedure: Cerebella granular meurons (CGN) (e and f) from postnatal day 7 rats were grown at a density of 100,000 cells/cm^2 for 7 days on poly-L-lysine coated microtiter plates in the medium containing 40 mM KCl, then the medium was substituted to a 5 mM KCl containing medium supplemented with various concentrations of FGLd.
For the experiments cerebellar tissue was dissected in modified Krebs-Ringer solution kept on ice, and treated as described for the hippocampal neurons above. All cell cultures were incubated at 37° C. in a humidified atmosphere containing 5% CO2.
Primary cultures of CGN were plated at a density of 100,000 cells/cm^2 on poly-L-lysine coated 8-well permanox slides in Neurobasal-A medium (Gibco, BRL) supplemented with 2% (v/v) B27, 0.5% (v/v) glutamax, 100 U/ml penicillin, 100 μg/ml streptomycin and KCl, making the final concentration of KCl in the medium 40 mM. 24 hours after plating, cytosine-β-D-arabinofuranoside (Ara-C; Sigma-Aldrich) was added to a final concentration of 10 μM to avoid proliferation of glial cells, after which the neurons were allowed to differentiate for further six days at 37° C. Apoptotic cell death was induced by washing twice and changing the medium to Basal Medium Eagle (BME; Gibco BRL) supplemented with 1% (v/v) glutamine, 100 U/ml penicillin and 100 μg/ml streptomycin, 3.5 g D-glucose/l and 1% (v/v) sodium pyruvate (Gibco BRL) together with various concentrations of peptide. Thereby the concentration of potassium in the cultures was reduced to 5 mM KCl. Two days after induction of apoptosis, the cells were fixed with 4% formaldehyde and stained with Hoechst 33258 as described for the survival assay employing hippocampal neurons.

dopaminergic neurons [4] = test: Neurite outgrowth, dopaminergic neurons; assay type: cell-based, rat; conditions: DN E14, 72 h
Procedure: as §1
After 72 hours of incubation, the neurons were fixed with 4% (v/v) formaldehyde and immunostained using a primary mouse monoclonal antibody against tyrosine hydroxylase and secondary biotinylated sheep anti-mouse antibodies followed by incubation with peroxidase conjugated streptavidin. 98 images for each experimental condition in each individual experiment were automatically recorded using a computerised microscope workstation described by Walmod et al. (2002) Toxicol Appl Pharmacol. 181:1-15. Briefly, the workstation consisted of an Eclipse TE 300 inverted microscope (Nikon, Tokyo, Japan) equipped with a motorised, movable microscope stage (LUDL Electronic Production Ltd, Hawthorne, N.Y., USA), a 10× objective and a 1100 analogue b/w CCD video camera (DFA, Denmark). A software package Prima developed at the Protein Laboratory (Copenhagen University, Denmark) was used to make a stereologically based determination of neurite length according to Rønn et al., (2000) J Neurosci Methods. 100:25-32).

[5] = system: FGL-induced neurite outgrowth in CGN cultures; test: Effect of inhibitors of FGFR, MEK and PI3K on FGL-induced neurite outgrowth in CGN; assay type: cell-based, rat; conditions: Rattus norvegicus, 27 μg/ml FGLd, FGLd-treated control = 100%, read-out: FGLd-induced neurite outgrowth in CGN in presence of inhibitor
Procedure: CGN cultures were grown for 24 hours at a density of 10,000 cells/cm^2 on 8-well permanox slides in the presence of the FGL peptide and an inhibitor. PD98059 ([…]) was added at concentrations of 12.5, 25 and 50 μM simultaneously with 10 μg/ml FGLd; LY294002 (▴) was added at concentrations of 3.5, 7 and 10 μM simultaneously with 27 μg/ml FGLd. SU5402 (▪) was added in concentrations of 20, 40 and 80 μM simultaneously with 27 μg/ml FGLd. After the treatment cells were fixed and immunostained for GAP-43. Results from at least four independent experiments are shown as percentage ±SEM, with FGLd-treated control cultures set at 100%. The dashed line indicates the average neurite length in cultures without FGLd-treatment. *p<0.05, **p<0.01 when compared to the FGLd-treated controls.
as §2

dopaminergic neurons [6] = test: Survival of dopaminergic neurons exposed to 6-OHDA; assay type: cell-based, rat; conditions: 10 ng/ml; 6-OHDA-treated control cells set to 100%
Procedure: Dopaminergic neurons (DN) (a and b) from day 15 rat embryos grown at a density of 150,000 cells/cm^2 for six days without or with various concentrations of peptide on 24-well cell culture plates coated with poly-D-lysine were exposed to 100 μM 6-OHDA for two hours. Medium was changed and various concentrations of FGLd were added. The neurons were grown for another 24 hours before the cultures they were fixed and immunostained for tyrosine hydroxylase.
Dopaminergic neurons were prepared from Wistar rat embryos at embryonic day 15 (Charles River, Sulzfeld, Germany or Møllegaard, Denmark). A pregnant rat was sacrificed and the uterus was taken out and kept on ice in Hank's balanced salt solution (HBSS; Gibco, BRL). The ventral part of the mesencephalon was dissected from the embryonic brains, homogenised on ice in Gey's balanced salt solution (GBSS; Gibco, BRL) supplemented with 5 g glucose/l (Sigma-Aldrich) and thereafter trypsinised. The dissociated cells were washed in the presence of DNAse 1 and soybean trypsin inhibitor (Sigma-Aldrich).
For the survival assay isolated neurons were seeded at a density of 150,000 cells/cm^2 in 24-well cell culture plates coated with poly-D-lysine as described above. The neurons were left to differentiate for six days without or with various concentrations of the FGL peptide, after which 6-OHDA was added at a concentration of 100 μM for two hours. A stock solution was prepared by dissolving 6-OHDA to a concentration of 10 mM in 0.1% (w/v) sodium metabisulfite in order to prevent oxidation. After two hours with 6-OHDA, the medium was changed to Neurobasal medium with supplements and peptide, and the cell cultures were further incubated for 24 hours, fixed and immunostained for tyrosine hydroxylase. 98 images for each experimental condition in each individual experiment were automatically recorded as described for the dopaminergic neurite outgrowth assay below.

hippocampal neurons [7] = test: Survival of hippocampal neurons exposed to Aβ25-35; assay type: cell-based, rat; conditions: 50 ng/ml; 20 μM Aβ25-35
Procedure: For the experiments dissociated hippocampal neurons were isolated from Wistar rat embryos at embryonic day 19 or newborn rats as described by Rønn et al. (1999) Nat. Biotechnol. 17:1000-5.
Briefly, hippocampus was isolated from the brain in ice cold modified Krebs Ringer solution, cleared of blood vessels, roughly homogenised by chopping and then trypsinised. The dissociated cells were washed in the presence of DNAse 1 and soybean trypsin inhibitor.
For the assay neurons were plated at a density of 40,000 cells/cm^2 on 8-well permanox slides coated with 10 μg/ml poly-L-lysine in Neurobasal medium. 15 minutes after plating, Aβ25-35 was added to a final concentration of 20 μM. The Aβ25-35 had prior to plating been dissolved in sterile deionized water to a concentration of 3 mM and incubated at 37° C. for four days according to Pigino et al. (2001) J. Neurosci. 21:834-42. This treatment induces fibrillation of the Aβ-peptide fragment, thereby increasing its neurotoxic activity. The neurons were incubated with Neurobasal medium containing the FGL peptide for 70 hours, fixed with 4% (v/v) formaldehyde, and stained with Hoechst 33258 for 25 minutes as described by Kruman et al. (1997). Images of 1000-1500 neurons were randomly recorded for each group in each experiment using computer assisted fluorescence microscopy as described for the hippocampal neurite outgrowth assay. Nuclei from dead and live neurons were counted using the software package Prima developed at the Protein Laborator, Copenhagen University, and the fraction of live neurons relative to the total number of neurons was estimated.

11-amino acids fragment of the sequence set forth in SEQ ID NO: 5: SEQ ID NO: 5 (VAENSRGKNVAKG) with two amino acids truncated from the C-terminus; from axonal-associated cell adhesion molecule (Axonal-associated cell adhesion molecule [NCBI: NP_446331]: FGFR binding motif)
maximal effect, increase in neurite length of rat hippocampal neurons (hippocampal neurons [1]): 500%

EVYVVAENMGKSKA [FGLc]
PI staining (cell damage) after 10 minutes of OGD [2]: did not affect cell damage induced by OGD

IGF-1: insulin-like growth factor 1
rescue of CGN from low KCl-induced cell death ([3]; 50 ng/ml, 5 mM KCl): could be rescued

EVYVVAENQQGKSKA (NCAM Fn III, 2 [Swiss-Prot: P13591]: FGFR binding motif) [FGLm]
Effect on Neurite Length (Percent Increase vs. Control) (dopaminergic neurons [4]; 10 μg/mL): 15% | Effect on Neurite Length (Percent Increase vs. Control) (dopaminergic neurons [4]; 50 μg/mL): 23% | Effect on Neurite Length (Percent Increase vs. Control) (dopaminergic neurons [4]; 250 μg/mL): 28% | Neuronal Survival (% of Control) ([3]; CGN (PND 3-4), 250 μg/mL): 125%* % of Control | Neuronal Survival (% of Control) ([3]; CGN (PND 7-8), 10 μg/mL): 110%* % of Control | Neuronal Survival (% of Control) ([3]; CGN (PND 7-8), 50 μg/mL): 119%* % of Control | Neuronal Survival (% of Control) ([3]; CGN (PND 7-8), 250 μg/mL): 142%* % of Control

O=c1cc(N2CCOCC2)oc2c(-c3ccccc3)cccc12 [LY294002]
FGLd-induced neurite outgrowth (% of FGLd-treated control) at 3.5 µM ([5]; 3.5 μM inhibitor): 90% | FGLd-induced neurite outgrowth (% of FGLd-treated control) at 10 µM ([5]; 10 μM inhibitor): ~50%

B1: GDNF: glia derived neurotrophic factor (protein, UniProt P39905 78-211, looked up)
Glial cell line-derived …: SPDKQMAVLPRRERNRQAAAANPENSRGKGRRGQRGKNRGCVLTAIHLNVTDLGLGYETKEELIFRYCSGSCDAAETTYDKILKNLSRNRRLVSDKVGQACCRPIAFDDDLSFLDDNLVYHILRKHSAKRCGCI
survival of dopaminergic neurons treated with 6-OHDA (dopaminergic neurons [6]): 150%

B2: BDNF: brain derived neurotrophic factor (protein, UniProt P23560 19-247, looked up)
Neurotrophic factor BDNF …: APMKEANIRGQGGLAYPGVRTHGTLESVNGPKAGSRGLTSLADTFEHVIEELLDEDQKVRPNEENNKDADLYTSRVMLSSQVPLEPPLLFLLEEYKNYLDAANMSMRVRRHSDPARRGELSVCDSISEWVTAADKKTAVDMSGGTVTVLEKVPVSKGQLKQYFYETKCNPMGYTKEGCRGIDKRHWNSQCRTTQSYVRALTMDSKKRIGWRFIRIDTSCVCTLTIKRGR
rescue of hippocampal neurons from Aβ25-35-induced cell loss (hippocampal neurons [7]): could in part be rescued
